Measured values as given in US20230080054A1 (ILDONG PHARMACEUTICAL CO., LTD., priority 2021, published 2023).

Tests used:
human ANO6 [1] = target: T1, human ANO6 (Homo sapiens, UniProt Q4KMQ2); test: YFP quenching assay (ANO6 ion channel activity); type: cell-based; settings: 10 μM ionomycin; for inhibition at 1 µM: test compound 1 μM, read-out: Inhibition Level 1 μM; for inhibition at 30 µM: test compound 30 μM, read-out: Inhibition Level 30 μM
T1 construct: expressed in transfected cells
T1 sequence (Q4KMQ2 1-931 isoform Q4KMQ2-2): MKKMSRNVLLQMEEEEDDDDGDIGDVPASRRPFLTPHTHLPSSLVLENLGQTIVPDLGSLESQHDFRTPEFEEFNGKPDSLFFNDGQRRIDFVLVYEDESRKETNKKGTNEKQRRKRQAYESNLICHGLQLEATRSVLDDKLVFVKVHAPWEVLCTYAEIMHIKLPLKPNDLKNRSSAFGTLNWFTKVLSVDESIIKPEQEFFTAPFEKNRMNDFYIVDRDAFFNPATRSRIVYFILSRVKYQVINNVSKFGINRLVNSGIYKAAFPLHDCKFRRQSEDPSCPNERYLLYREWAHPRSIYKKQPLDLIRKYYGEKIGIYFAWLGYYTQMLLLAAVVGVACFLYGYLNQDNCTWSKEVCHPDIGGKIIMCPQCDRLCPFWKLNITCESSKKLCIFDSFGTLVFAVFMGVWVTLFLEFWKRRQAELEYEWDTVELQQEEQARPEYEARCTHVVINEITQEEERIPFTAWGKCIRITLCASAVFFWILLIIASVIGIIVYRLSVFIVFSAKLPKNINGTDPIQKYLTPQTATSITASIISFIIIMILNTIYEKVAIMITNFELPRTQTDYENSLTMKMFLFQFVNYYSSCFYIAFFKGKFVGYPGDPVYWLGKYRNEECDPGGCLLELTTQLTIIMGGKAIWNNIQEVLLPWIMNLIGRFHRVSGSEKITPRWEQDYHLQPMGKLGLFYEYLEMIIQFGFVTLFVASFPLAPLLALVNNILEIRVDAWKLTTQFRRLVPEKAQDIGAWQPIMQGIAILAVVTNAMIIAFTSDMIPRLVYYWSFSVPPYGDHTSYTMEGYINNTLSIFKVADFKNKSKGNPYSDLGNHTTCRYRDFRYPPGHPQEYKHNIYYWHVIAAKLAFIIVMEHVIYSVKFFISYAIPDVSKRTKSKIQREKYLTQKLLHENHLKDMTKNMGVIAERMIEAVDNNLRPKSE
From the text: Example 3: YFP Quenching Assay
1. Materials and Instruments
Ionomycin (Alomonelab cat. #I-700), FLUOstar Omega microplate reader (BMG Labtech, Ortenberg, Germany), and MARS Data Analysis Software (BMG Labtech)
Fisher rat thyroid (FRT) cells stably expressing human ANO6 (GenBank accession no. NP_001191732.1, provided by J. H. Nam, Dongguk University College of Medicine, Korea) and halide sensor mutant YFP-H148Q/I152L/F46L) were constructed and grown in Dulbecco's modified Eagle's medium Nutrient Mixture F-12 (DMEM/F-12) supplemented 10% FBS, 100 units/mL penicillin, 500 μg/mL hygromycin B and 100 μg/mL neomycin.
Fisher rat thyroid (FRT) cells stably expressing human ANO6 and halide sensor mutant YFP (H148Q/I152L/F46L) were seeded in black walled 96 well plates and incubated in a 37° C., 5% CO2 incubator to reach about 100% cell confluency. Then, each well of the 96 well plates were washed for several times with phosphate buffered saline (PBS), and 50 μL of PBS was added to each well. Test compounds (100× in DMSO) were added to each well to be 1% v/v DMSO. After incubation for 10 minutes in 40° C., the 96 well plates were transferred to a plate reader, and YFP fluorescence changed by SCN-introduced into cells through activated ANO6 were measured by the following steps.
(1) YFP fluorescence signals were recorded in every 0.4 seconds.
(2) Basal YFP fluorescence signals were recorded for 1 second.
(3) 140 mM SCN-(50 μL) containing 10 μM ionomycin was injected to each well, and YFP fluorescence signals were recorded.
The inhibitory activity (%) of each of the test compounds was obtained by the following steps.
(1) Background signals were subtracted from recording values, and the resulting values were converted to relative percentages. The values at 0 second were set to be 100%.
(2) Differences between the values at 3.6 seconds and those of at 7.6 seconds were calculated.
(3) In each row of 96 well plate, the inhibitory activity of each of the test compounds was calculated as percentages. The inhibitory activity of a negative control group to which neither compounds nor ionomycin were treated was set to be 100%, and the inhibitory activity of a positive control group to which ionomycin was treated and compounds were not treated was set to be 0%.
(4) The assay was performed in duplicate or triplicate, and the results were averaged.

human ANO6 [2] = target: T1, human ANO6; test: LACT C2 assay (phosphatidylserine scramblase function assay); type: cell-based; settings: FRT cells expressing human ANO6, 10 μM ionomycin; for inhibition at 0.1 µM: test compound 100 nM, read-out: Inhibition Level 100 nM; for inhibition at 1 µM: test compound 1 μM, read-out: Inhibition Level 1 μM
In short: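 Inhibition was normalised between ionomycin-only (0%) and untreated (100%) wells, with triplicates averaged. Readout was background-corrected Lact-C2-GFP (500 nM) fluorescence from imaged cells. The cells were FRT cells stably expressing human ANO6, given compound at 1% DMSO for 10 min before a 10 min 10 μM ionomycin challenge.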

| inhibition at 1 µM (human ANO6 [1]) [%] | inhibition at 30 µM (human ANO6 [1]) [%] | inhibition at 0.1 µM (human ANO6 [2]) [%] | inhibition at 1 µM (human ANO6 [2]) [%] | SMILES |
| --- | --- | --- | --- | --- |
| < 30 | – | – | – | Cc1ccc(CNC(=O)c2cccc(Nc3ccc(C4CCCC4)nn3)c2)o1 [Compound 62, 3-[(6-cyclopentylpyridazin-3-yl)amino]-N-[(5-methylfuran-2-yl)methyl]benzamide] |
| 30 to 60 | – | – | – | COc1ccc(CCNC(=O)c2cccc(Nc3ncc(-c4ccccc4)cn3)c2)cc1 [Compound 83, N-[2-(4-methoxyphenyl)ethyl]-3-[(5-phenylpyrimidin-2-yl)amino]benzamide] |
| 30 to 60 | ≥ 60 | – | – | Cc1ccc(CNC(=O)c2cccc(Nc3cnc(-c4ccccc4)nc3)c2)o1 [Compound 11, N-[(5-methylfuran-2-yl)methyl]-3-[(2-phenylpyrimidin-5-yl)amino]benzamide] |
| < 30 | – | – | – | O=C(NCCN1CCCC1)c1cccc(Nc2ncc(-c3ccccc3)cn2)c1 [Compound 94, 3-[(5-phenylpyrimidin-2-yl)amino]-N-[2-(pyrrolidin-1-yl)ethyl]benzamide] |
| 30 to 60 | ≥ 60 | – | – | COCCCNC(=O)c1cccc(Nc2ccc(-c3ccccc3)nn2)c1 [Compound A69] |
| < 30 | – | – | – | Cc1ccc(CNC(=O)c2cccc(Nc3ccc(CC(C)C)nn3)c2)o1 [Compound 61, N-[(5-methylfuran-2-yl)methyl]-3-{[6-(2-methylpropyl)pyridazin-3-yl]amino}benzamide] |
| < 30 | – | – | – | Cc1ccc(CNC(=O)c2cccc(Nc3ncc(-c4cnc5ccccc5c4)cn3)c2)o1 [Compound 104, N-[(5-methylfuran-2-yl)methyl]-3-{[5-(quinolin-3-yl)pyrimidin-2-yl]amino}benzamide] |
| 30 to 60 | ≥ 60 | – | – | COc1ccc(CNC(=O)c2cccc(Nc3ccc(-c4ccccc4)nn3)c2)c(OC)c1 [Compound A61] |
| 30 to 60 | ≥ 60 | – | – | O=C(NCCc1ccncc1)c1cccc(Nc2ccc(-c3ccccc3)nn2)c1 [Compound 27, 3-[(6-phenylpyridazin-3-yl)amino]-N-[2-(pyridin-4-yl)ethyl]benzamide] |
| < 30 | < 30 | – | – | O=C(NCCCN1CCCC1)c1cccc(Nc2ccc(-c3ccccc3)nn2)c1 [Compound 21, 3-[(6-phenylpyridazin-3-yl)amino]-N-[3-(pyrrolidin-1-yl)propyl]benzamide] |
| – | – | < 30 | < 30 | CN1CCC(CCNC(=O)c2cccc(Nc3ccc(-c4cccc(F)c4)cn3)c2)CC1 [Compound 139, 3-((5-(3-fluorophenyl)pyridin-2-yl)amino)-N-(2-(1-methylpiperidin-4-yl)ethyl)benzamide] |
| – | – | < 30 | < 30 | Cc1c(C2CC2NC(=O)c2cccc(Nc3ncc(-c4cccc(F)c4)cn3)c2)cnn1C (centres unmarked) [Compound 150, N-(2-(1,5-dimethyl-1H-pyrazol-4-yl)cyclopropyl)-3-((5-(3-fluorophenyl)pyrimidin-2-yl)amino)benzamide] |
| – | – | < 30 | – | O=C(N[C@@H]1C[C@H]1c1ccccc1)C12CCC(Nc3ccc(-c4ccccc4)nn3)(CC1)C2 [Compound 168, (1s,4s)-N-((1R,2S)-2-phenylcyclopropyl)-4-((6-phenylpyridazin-3-yl)amino)bicyclo[2.2.1]heptane-1-carboxamide] |
| – | – | < 30 | 30 to 60 | O=C(NC1(c2ccccc2)CC1)c1cccc(Nc2ccc(-c3cccc(F)c3)cn2)c1 [Compound 134, 3-((5-(3-fluorophenyl)pyridin-2-yl)amino)-N-(1-phenylcyclopropyl)benzamide] |
| – | – | < 30 | 30 to 60 | O=C(NCc1ccccc1Cl)c1cccc(Nc2ncc(-c3cccc(F)c3)cn2)c1 [Compound A98] |
| – | – | < 30 | < 30 | Nc1cccc(CCNC(=O)c2cccc(Nc3ncc(-c4cccc(F)c4)cn3)c2)c1 [Compound 147, N-(3-aminophenethyl)-3-((5-(3-fluorophenyl)pyrimidin-2-yl)amino)benzamide] |
| – | – | < 30 | 30 to 60 | Cc1ccc(CNC(=O)c2cccc(Nc3ncc(-c4cccc(F)c4)cn3)c2)c(C)c1 [Compound 206, N-(2,4-dimethylbenzyl)-3-((5-(3-fluorophenyl)pyrimidin-2-yl)amino)benzamide] |
| – | – | < 30 | < 30 | O=C(NCc1ccc(F)cc1F)c1cccc(Nc2ncc(-c3cccc(F)c3)cn2)c1 [Compound 215, N-(2,4-difluorobenzyl)-3-((5-(3-fluorophenyl)pyrimidin-2-yl)amino)benzamide] |
| – | – | < 30 | 30 to 60 | O=C(NCc1ccccc1C(F)(F)F)c1cccc(Nc2ncc(-c3cccc(F)c3)cn2)c1 [Compound 204, 3-((5-(3-fluorophenyl)pyrimidin-2-yl)amino)-N-(2-(trifluoromethyl)benzyl)benzamide] |
| – | – | 30 to 60 | ≥ 60 | O=C(N[C@@H]1C[C@H]1c1ccccc1)c1cccc(Nc2ncc(-c3ccoc3)cn2)c1 [Compound 157, 3-((5-(furan-3-yl)pyrimidin-2-yl)amino)-N-((1R,2S)-2-phenylcyclopropyl)benzamide] |
| – | – | 30 to 60 | ≥ 60 | O=C(N[C@@H]1C[C@H]1c1ccc(F)c(F)c1)c1cccc(Nc2ccc(-c3ccccc3)nn2)c1 [Compound 234, N-((1R,2S)-2-(3,4-difluorophenyl)cyclopropyl)-3-((6-phenylpyridazin-3-yl)amino)benzamide] |
| – | – | < 30 | – | O=C(Nc1cccc(F)c1)c1cccc(NC2CCC(c3ccccc3)C2)c1 (centres unmarked) [Compound 187, N-(3-fluorophenyl)-3-((3-phenylcyclopentyl)amino)benzamide] |
| – | – | < 30 | < 30 | CC(NC(=O)c1cccc(Nc2ccc(-c3ccccc3)nn2)c1)c1ccc(F)cc1 (centres unmarked) [Compound 233, N-(1-(4-fluorophenyl)ethyl)-3-((6-phenylpyridazin-3-yl)amino)benzamide] |
| – | – | < 30 | < 30 | COC(=O)c1ccccc1CCNC(=O)c1cccc(Nc2ncc(-c3cccc(F)c3)cn2)c1 [Compound 127, methyl 2-(2-(3-((5-(3-fluorophenyl)pyrimidin-2-yl)amino)benzamido)ethyl)benzoate] |
| – | – | < 30 | 30 to 60 | CN1CCN(c2cc(F)ccc2CNC(=O)c2cccc(Nc3ccc(-c4ccccc4)nn3)c2)CC1 [Compound 222, N-(4-fluoro-2-(4-methylpiperazin-1-yl)benzyl)-3-((6-phenylpyridazin-3-yl)amino)benzamide] |
| – | – | – | < 30 | COC(=O)c1ccc(CCNC(=O)c2cccc(Nc3ncc(-c4cccc(F)c4)cn3)c2)cc1 [Compound 126, methyl 4-(2-(3-((5-(3-fluorophenyl)pyrimidin-2-yl)amino)benzamido)ethyl)benzoate] |
